Results published in patent US8617528B2, “Compositions and methods for stabilizing ingredients using 2,4-pentanedione compounds” (Sytheon Ltd., priority 2010, dated 2013).

Tests used:
[1] = Photostabilization of avobenzone in ethanol test solution under sun simulator
Procedure: A comparative photostabilization study was conducted comparing the photostabilization efficacy of the compound of Example 1, HSS, and the compound of Example 3 (Compound 3) with Octocrylene and Oxynex® ST in the stabilization of avobenzone. Samples for evaluation were prepared as follows:
Solutions in ethanol are prepared at respective concentrations of photosensitive materials and photostabilizer (typically 1:1 to 1:5 weight ratio). A base test solution of 3% Avobenzone+5% Octyl salicylate +10% Homoslate in Ethanol (the “Test Solution”) was made. Seven additional solutions were prepared by adding 2% Synoxyl™ HSS, 4% Synoxyl™ HSS, 4% Compound 3, 2% Octocrylene, 4% Octocrylene, 2% Oxynex® ST, and 2% dehydrozingerone methyl ether, respectively, to seven aliquots of the Test Solution.
Samples of each solution were prepared as ultrathin films between two quartz plates so as to obtain a minimum of 90% light transmission over the entire spectrum range of non absorbing chromophores. For example, ingredients which absorb only in the UV range were tested in formulation to obtain a minimum of 90% light transmission over the visible range. Each sample was then irradiated under sun simulator (754 W/m^2, 2 MED/h, UV dose from 20 to 100 Joules/cm^2) for various durations and light absorption spectra recorded for each sample at given times. The maximal absorption band λmax of each solution was determined before and after irradiation. The amount of the photosensitive materials remaining in solution after irradiation was calculated as the ratio of their two maximal absorptions.

[2] = Hydrolytic stability of HSS in water at pH 7, 8, 9 (GC purity of recovered solid); assay type: physicochemical
Procedure: A series of hydrolytic stability tests were conducted on the compound of Example 1, HSS, as follows
pH7: 2.5 g of samples of HSS were placed in 100 ml round bottom flasks and 50 ml of double distilled water (pH 7) added to each. […] Thereafter each sample was filtered and the solids dried.
pH 8: 2.5 g of samples of HSS were placed in 100 ml round bottom flasks and 50 ml of double distilled water which had been adjusted to pH 8 using 0.01N NaOH solution added to each. […] Thereafter each sample was filtered and the solids dried.
pH 9: 2.5 g of samples of HSS were placed in 100 ml round bottom flasks and 50 ml of double distilled water which had been adjusted to pH 9 using 0.1N NaOH solution added to each. […] Thereafter each sample was filtered and the solids dried.
Each dried sample was analyzed by gas chromatography using an HP-5, 15 m, 0.53 mm id, capillary column with following set-up and test parameters: • Injection temperature: 250° C. • Oven temp: 50° C. (2 min), 10° C. to 260° C. (20 min) • Detector: FID • Detector temp: 260° C. • Carrier gas: Nitrogen • Column flow: 3.0 ml/min • Split ratio: 5:1 • Injection Volume: 1 micro liter • Sample concentration: 100 mg/ml in Methanol
The initial purity of the HSS used to make Samples A through F was 98.9% as determined by the aforementioned GC procedure.

[3] = Photostabilization of water-soluble dyes under solar simulated light; details: 0.05% stabilizer, FD&C Yellow No 5 or Red No 40, solar simulated light ~40 hours
Procedure: The stabilizer compound Synoxyl™ HSS according to Example 1 was added to the two dye compositions of Table 9, one containing Yellow No 5 and the other Red No 40, in order to evaluate its ability to reduce the extent of color fading resulting from their exposure to solar simulated light. In both formulations without the Synoxyl™ HSS, visible and marked color fading was noted following just 2 hours of light exposure.

[4] = Stabilization of colored shampoo under fluorescent light (Delta E); details: 0.4 g HSS in 120 g shampoo, ambient temperature, 4 weeks
Procedure: The stabilizer compound according to Example 1, Synoxyl™ HSS, was added to a commercial shampoo formulation in order to evaluate its ability to reduce the amount of dye fading following exposure to fluorescent lighting. The sample was prepared by dissolving 0.4 g of HSS in 5 ml of ethanol and then adding the solution to 120 g of Suave® Natural Fresh Mountain Strawberry Shampoo with agitation and agitated for 15 minutes. A sample of the unmodified shampoo and the modified shampoo are then placed into 20 ml glass scintillation vials. Both sets of vials were weathered under fluorescent light aging at ambient temperature for 4 weeks. The L*a*b coordinates before and after exposure are measured using X-Rite 938 Spectro-densitometer. Color change is expressed as Delta E (ΔE) which is calculated by the formula: ΔE=[(ΔL*)^2+(Δa*)^2+(Δb*)^2]^1/2
Following the 4 week exposure the change in color, Delta E, was 21.6 for the unmodified shampoo and 12.3 for the modified shampoo.

COc1cc(C=C(C(C)=O)C(C)=O)cc(OC)c1OC [HSS, 3-(3,4,5-trimethoxybenzylidene)-2,4-pentanedione]
% remaining ([1]; 2% stabilizer in Test Solution (3% Avobenzone), UV dose 0 Joules/cm^2): 100%
% remaining ([1]; 2% stabilizer in Test Solution (3% Avobenzone), UV dose 20 Joules/cm^2): 96%
% remaining ([1]; 2% stabilizer in Test Solution (3% Avobenzone), UV dose 40 Joules/cm^2): 90%
% remaining ([1]; 2% stabilizer in Test Solution (3% Avobenzone), UV dose 60 Joules/cm^2): 84%
% remaining ([1]; 2% stabilizer in Test Solution (3% Avobenzone), UV dose 80 Joules/cm^2): 77%
% remaining ([1]; 2% stabilizer in Test Solution (3% Avobenzone), UV dose 100 Joules/cm^2): 70%
% remaining ([1]; 4% stabilizer in Test Solution (3% Avobenzone), UV dose 0 Joules/cm^2): 100%
% remaining ([1]; 4% stabilizer in Test Solution (3% Avobenzone), UV dose 20 Joules/cm^2): 96%
% remaining ([1]; 4% stabilizer in Test Solution (3% Avobenzone), UV dose 40 Joules/cm^2): 90%
% remaining ([1]; 4% stabilizer in Test Solution (3% Avobenzone), UV dose 60 Joules/cm^2): 84%
% remaining ([1]; 4% stabilizer in Test Solution (3% Avobenzone), UV dose 80 Joules/cm^2): 80%
% remaining ([1]; 4% stabilizer in Test Solution (3% Avobenzone), UV dose 100 Joules/cm^2): 76%
hydrolytic stability ([2]; pH 7, 8, and 9 at 40° C. and at 60° C. for at least 8 hrs): stable
GC purity (Area %) ([2]; pH 7, 40° C., 4 h): 98.9 Area %
GC purity (Area %) ([2]; pH 7, 40° C., 8 h): 99.1 Area %
GC purity (Area %) ([2]; pH 7, 60° C., 4 h): 98.6 Area %
GC purity (Area %) ([2]; pH 7, 60° C., 8 h): 99.0 Area %
GC purity (Area %) ([2]; pH 7, RT (~27° C.), 4 h): 98.8 Area %
GC purity (Area %) ([2]; pH 7, RT (~27° C.), 8 h): 99.0 Area %
GC purity (Area %) ([2]; pH 8, 40° C., 4 h): 98.9 Area %
GC purity (Area %) ([2]; pH 8, 40° C., 8 h): 99.1 Area %
GC purity (Area %) ([2]; pH 8, 60° C., 4 h): 99.2 Area %
GC purity (Area %) ([2]; pH 8, 60° C., 8 h): 99.0 Area %
GC purity (Area %) ([2]; pH 8, RT (~27° C.), 4 h): 98.7 Area %
GC purity (Area %) ([2]; pH 8, RT (~27° C.), 8 h): 99.2 Area %
GC purity (Area %) ([2]; pH 9, 40° C., 4 h): 99.0 Area %
GC purity (Area %) ([2]; pH 9, 40° C., 8 h): 98.9 Area %
GC purity (Area %) ([2]; pH 9, 60° C., 4 h): 99.1 Area %
GC purity (Area %) ([2]; pH 9, 60° C., 8 h): 98.8 Area %
GC purity (Area %) ([2]; pH 9, RT (~27° C.), 4 h): 98.8 Area %
GC purity (Area %) ([2]; pH 9, RT (~27° C.), 8 h): 98.8 Area %
color fading of dye formulation [3]: failed to manifest color fading
change in color, Delta E [4]: 12.3
